Holding throughout (format): in vivo
Holding throughout (parameters): scale not given here

The test system of assay [1] is Setaria viridis (L.) Beauv. Kind of assay: Herbicidal effect by upland foliage treatment. The settings on record: active ingredient 1000 g/ha, examined at 14th day from treatment. Here is the method:
(§1) A sand was filled in a plastic pot of 80 cm^2. Seeds of Echinochloa crus-galli (L.) Beauv. var. crus-galli and Setaria viridis (L.) Beauv. were sowed. Breeding was made in a greenhouse for 2 weeks. Wettable powders produced in accordance with the Formulation 1 were diluted with water and sprayed on the whole foliage of plants from above the plants using a small sprayer in an amount of 1,000 liters per 1 hectare so that the amount of each active ingredient became 1,000 g per 1 hectare. Then, breeding was made in the greenhouse, and the herbicidal effect of each wettable powder was examined at the 14th day from the treatment in accordance with the standard shown in Table 21.

Assay [2] has as its system Echinochloa crus-galli (L.) Beauv. var. crus-galli. As to the kind of experiment: Herbicidal effect by upland foliage treatment. Conditions: active ingredient 1000 g/ha, examined at 14th day from treatment. The procedure: as §1
Assay [3] has as its system Monochoria vaginalis (Murm. f.) Presl var. plantaginea (Roxb.) Solms-Laub. Kind of assay: Herbicidal effect by paddy field soil treatment. The settings on record: wettable powder, active ingredient 1000 g/ha, examined at the 21st day from the treatment. The gist of the method:
(§2)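 Seeds sown in puddled paddy soil under 3 cm of water; the next day wettable powders diluted in water were dropped onto the water surface at 1,000 g active ingredient/ha. Plants grown in a greenhouse, with herbicidal effect scored on day 21 against a rating standard.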

Assay [4] deals with Echinochloa oryzicola Vasing. Kind of assay: Herbicidal effect by paddy field soil treatment. Conditions: wettable powder, active ingredient 1000 g/ha, examined at the 21st day from the treatment. The gist of the method: as §2
Assay [5] deals with Setaria viridis (L.) Beauv. As to the kind of experiment: Herbicidal effect by upland field soil treatment. The settings on record: active ingredient 1000 g/ha, examined at 21st day from treatment. The source says: (§3) An upland field soil was filled in a plastic pot of 80 cm^2. Seeds of Echinochloa crus-galli (L.) Beauv. var. crusgalli and Setaria viridis (L.) Beauv. were sowed, followed by covering with the same soil. […] Then, breeding was made in a greenhouse, and the herbicidal effect of each wettable powder was examined at the 21st day from the treatment in accordance with the standard shown in Table 21.

Assay [6] concerns Echinochloa crus-galli (L.) Beauv. var. crusgalli. Kind of assay: Herbicidal effect by upland field soil treatment. Conditions: active ingredient 1000 g/ha, examined at 21st day from treatment.
Description: as §3

The record followed here is patent publication US7238689B2, “Isoxazoline derivative and herbicide comprising the same as active ingredient” (Ihara Chemical Industry Co., Ltd., priority 2001, dated 2007).

With `CCn1nc(C(F)(F)F)c(CS(=O)(=O)C2=NOC(C)(C)C2)c1Cl` [3-0073], the “herbicidal effect (index per standard of Table 21), Setaria viridis (L.) Beauv.” value is recorded as 4 in assay [1] and 5 in assay [5]. In addition, the “herbicidal effect (index per standard of Table 21), Echinochloa curs-galli (L.) Beauv. Var. crus-galli” value in assay [2] and in assay [6] was 5 throughout. In assay [3], the “Herbicidal effect index, Monochoria vaginalis (Burm. F.) Presl var. plantaginea (Roxb.) Solms-Laub.” value (“Herbicidal effect index … (Roxb.) Solms-Laub.” for short) came out at 5. Moreover, in assay [4], the “Herbicidal effect index, Echinochloa oryzicola Vasing” value turned out to be 5.

Turning to `CC1(C)CC(S(=O)(=O)Cc2c(C(F)(F)F)cnn2-c2ccccc2)=NO1` [5-0007], the “herbicidal effect (index per standard of Table 21), Setaria viridis (L.) Beauv.” value in assay [1] and in assay [5] was 5 in each case. For the same molecule, the “herbicidal effect (index per standard of Table 21), Echinochloa curs-galli (L.) Beauv. Var. crus-galli” value in assay [2] and in assay [6] was 5 throughout. For the same molecule, the “Herbicidal effect index … (Roxb.) Solms-Laub.” value in assay [3] came to 5. Also, in assay [4], the “Herbicidal effect index, Echinochloa oryzicola Vasing” value is 5.

For `COC(=O)c1c(Cl)sc(Cl)c1CS(=O)(=O)C1=NOC(C)(C)C1` [2-0011], the “herbicidal effect (index per standard of Table 21), Setaria viridis (L.) Beauv.” value in assay [1] and in assay [5] was 4 each time. Further, the “herbicidal effect (index per standard of Table 21), Echinochloa curs-galli (L.) Beauv. Var. crus-galli” value in assay [2] and in assay [6] was 5 throughout. In assay [3], the “Herbicidal effect index … (Roxb.) Solms-Laub.” value is reported as 5. Further, the “Herbicidal effect index, Echinochloa oryzicola Vasing” value in assay [4] worked out at 5.

Regarding `COc1cscc1CS(=O)(=O)C1=NOC(C)(C)C1` [2-0004], the “herbicidal effect (index per standard of Table 21), Setaria viridis (L.) Beauv.” value in assay [1] was determined as 4; in assay [5] it was 5. Also, the “herbicidal effect (index per standard of Table 21), Echinochloa curs-galli (L.) Beauv. Var. crus-galli” value in assay [2] and in assay [6] was 5 throughout. In addition, the “Herbicidal effect index … (Roxb.) Solms-Laub.” value in assay [3] stood at 5. The “Herbicidal effect index, Echinochloa oryzicola Vasing” value in assay [4] is reported as 5.

`Cc1ccsc1CS(=O)(=O)C1=NOC(C)(C)C1` [1-0001]: the “herbicidal effect (index per standard of Table 21), Setaria viridis (L.) Beauv.” value in assay [1] is 4; in assay [5], 5. Also, the “herbicidal effect (index per standard of Table 21), Echinochloa curs-galli (L.) Beauv. Var. crus-galli” value in assay [2] and in assay [6] was 5 each time. In assay [3], the “Herbicidal effect index … (Roxb.) Solms-Laub.” value amounted to 5. Further, the “Herbicidal effect index, Echinochloa oryzicola Vasing” value in assay [4] was determined as 5.

As to `CC1(C)CC(S(=O)(=O)Cc2sccc2Cl)=NO1` [1-0004], the “herbicidal effect (index per standard of Table 21), Setaria viridis (L.) Beauv.” value in assay [1] is given as 4; in assay [5], 5. The “herbicidal effect (index per standard of Table 21), Echinochloa curs-galli (L.) Beauv. Var. crus-galli” value in assay [2] and in assay [6] was 5 throughout. In assay [3], the “Herbicidal effect index … (Roxb.) Solms-Laub.” value was 5. In addition, in assay [4], the “Herbicidal effect index, Echinochloa oryzicola Vasing” value was found to be 5.

With `CCCCn1nc(Cl)c(CS(=O)(=O)C2=NOC(C)(C)C2)c1C(F)(F)F` [3-0086], the “herbicidal effect (index per standard of Table 21), Setaria viridis (L.) Beauv.” value in assay [1] is 4; in assay [5], 5. Besides, the “herbicidal effect (index per standard of Table 21), Echinochloa curs-galli (L.) Beauv. Var. crus-galli” value in assay [2] is on record as 4; in assay [6], 5. Moreover, in assay [3], the “Herbicidal effect index … (Roxb.) Solms-Laub.” value was 5. Further, the “Herbicidal effect index, Echinochloa oryzicola Vasing” value in assay [4] was 5.

Consider `CCCCn1nc(C(F)(F)F)c(CS(=O)(=O)C2=NOC(C)(C)C2)c1Cl` [3-0085], for which the “herbicidal effect (index per standard of Table 21), Setaria viridis (L.) Beauv.” value in assay [1] is 4; in assay [5], 5. Besides, the “herbicidal effect (index per standard of Table 21), Echinochloa curs-galli (L.) Beauv. Var. crus-galli” value is 4 in assay [2] and 5 in assay [6]. Besides, the “Herbicidal effect index … (Roxb.) Solms-Laub.” value in assay [3] stood at 5. In addition, the “Herbicidal effect index, Echinochloa oryzicola Vasing” value in assay [4] came out at 5.

With `CCOCn1nc(C(F)(F)F)c(CS(=O)(=O)C2=NOC(C)(C)C2)c1Cl` [3-0120], the “herbicidal effect (index per standard of Table 21), Setaria viridis (L.) Beauv.” value in assay [1] and in assay [5] was 5 throughout. Moreover, the “herbicidal effect (index per standard of Table 21), Echinochloa curs-galli (L.) Beauv. Var. crus-galli” value in assay [2] and in assay [6] was 5 throughout. Also, the “Herbicidal effect index … (Roxb.) Solms-Laub.” value in assay [3] turned out to be 5. Further, in assay [4], the “Herbicidal effect index, Echinochloa oryzicola Vasing” value was found to be 5.

Consider `CCc1nn(C)c(CS(=O)(=O)C2=NOC(C)(C)C2)c1Cl` [5-0002], for which the “herbicidal effect (index per standard of Table 21), Setaria viridis (L.) Beauv.” value in assay [1] and in assay [5] was 5 throughout. Further, the “herbicidal effect (index per standard of Table 21), Echinochloa curs-galli (L.) Beauv. Var. crus-galli” value in assay [2] and in assay [6] was 5 throughout. Moreover, the “Herbicidal effect index … (Roxb.) Solms-Laub.” value in assay [3] is on record as 5. The “Herbicidal effect index, Echinochloa oryzicola Vasing” value in assay [4] was 5.

Take `CC1(C)CC(S(=O)(=O)Cc2ccccn2)=NO1` [9-0001]: the “herbicidal effect (index per standard of Table 21), Setaria viridis (L.) Beauv.” value is given as 4 in assay [1] and 5 in assay [5]. Besides, the entries for the “herbicidal effect (index per standard of Table 21), Echinochloa curs-galli (L.) Beauv. Var. crus-galli” value in assay [2] and in assay [6] were 4 and 5, respectively. In assay [3], the “Herbicidal effect index … (Roxb.) Solms-Laub.” value is on record as 5. Further, in assay [4], the “Herbicidal effect index, Echinochloa oryzicola Vasing” value is given as 5.

Regarding `CCOc1c(CS(=O)(=O)C2=NOC(C)(C)C2)c(C(F)(F)F)nn1C` [3-0044], the figures for the “herbicidal effect (index per standard of Table 21), Setaria viridis (L.) Beauv.” value in assay [1] and in assay [5] were 4 and 5, respectively. For the same molecule, the “herbicidal effect (index per standard of Table 21), Echinochloa curs-galli (L.) Beauv. Var. crus-galli” value in assay [2] and in assay [6] was 5 each time. The “Herbicidal effect index … (Roxb.) Solms-Laub.” value in assay [3] was 5. The “Herbicidal effect index, Echinochloa oryzicola Vasing” value in assay [4] amounted to 5.

Consider `Cc1nn(C)c(Cl)c1CS(=O)(=O)C1=NOC(C)(C)C1` [3-0037], for which the results for the “herbicidal effect (index per standard of Table 21), Setaria viridis (L.) Beauv.” value in assay [1] and in assay [5] were 4 and 5, respectively. Moreover, the “herbicidal effect (index per standard of Table 21), Echinochloa curs-galli (L.) Beauv. Var. crus-galli” value in assay [2] and in assay [6] was 5 throughout. Also, the “Herbicidal effect index … (Roxb.) Solms-Laub.” value in assay [3] was 5. The “Herbicidal effect index, Echinochloa oryzicola Vasing” value in assay [4] worked out at 5.

Regarding `Cn1ncc(C(F)(F)F)c1CS(=O)(=O)C1=NOC(C)(C)C1` [5-0003], the results for the “herbicidal effect (index per standard of Table 21), Setaria viridis (L.) Beauv.” value in assay [1] and in assay [5] were 4 and 5, respectively. Moreover, the “herbicidal effect (index per standard of Table 21), Echinochloa curs-galli (L.) Beauv. Var. crus-galli” value in assay [2] and in assay [6] was 5 in each case. In assay [3], the “Herbicidal effect index … (Roxb.) Solms-Laub.” value is reported as 5. For the same molecule, the “Herbicidal effect index, Echinochloa oryzicola Vasing” value in assay [4] is listed as 5.

As to `CC(=O)CCn1nc(C(F)(F)F)c(CS(=O)(=O)C2=NOC(C)(C)C2)c1Cl` [3-0144], the “herbicidal effect (index per standard of Table 21), Setaria viridis (L.) Beauv.” value in assay [1] and in assay [5] was 5 throughout. The “herbicidal effect (index per standard of Table 21), Echinochloa curs-galli (L.) Beauv. Var. crus-galli” value in assay [2] and in assay [6] was 5 each time. In addition, in assay [3], the “Herbicidal effect index … (Roxb.) Solms-Laub.” value is 5. Also, the “Herbicidal effect index, Echinochloa oryzicola Vasing” value in assay [4] is recorded as 5.

For the molecule `CC(C)Cn1nc(C(F)(F)F)c(CS(=O)(=O)C2=NOC(C)(C)C2)c1Cl` [3-0083], the figures for the “herbicidal effect (index per standard of Table 21), Setaria viridis (L.) Beauv.” value in assay [1] and in assay [5] were 4 and 5, respectively. Further, the results for the “herbicidal effect (index per standard of Table 21), Echinochloa curs-galli (L.) Beauv. Var. crus-galli” value in assay [2] and in assay [6] were 4 and 5, respectively. In addition, in assay [3], the “Herbicidal effect index … (Roxb.) Solms-Laub.” value is recorded as 5. Moreover, in assay [4], the “Herbicidal effect index, Echinochloa oryzicola Vasing” value stood at 5.

As for `CC(=O)c1c(C)sc(C)c1CS(=O)(=O)C1=NOC(C)(C)C1` [2-0008], the “herbicidal effect (index per standard of Table 21), Setaria viridis (L.) Beauv.” value in assay [1] and in assay [5] was 5 in each case. For the same molecule, the “herbicidal effect (index per standard of Table 21), Echinochloa curs-galli (L.) Beauv. Var. crus-galli” value in assay [2] and in assay [6] was 5 each time. In addition, the “Herbicidal effect index … (Roxb.) Solms-Laub.” value in assay [3] is 5. Also, the “Herbicidal effect index, Echinochloa oryzicola Vasing” value in assay [4] is recorded as 5.
